Assay results reported in PubChem BioAssay AID328 (DTP/NCI, 2004).
Several values for one entry are separate records, joined by “and”; a condition that tells them apart may be missing. Equal values may be shown once. Toxic doses and inconclusive results are not listed. The calls were made as follows: active = survival T/C of 150% or more; inactive = T/C below 125% in these data.

System: BDF1 mice, P388 leukemia ip, median survival T/C
Experiment: NCI In Vivo Anticancer Drug Screen. Data for tumor model P388 Leukemia (intraperitoneal) in B6D2F1 (BDF1) mice
Conditions: endpoint: median survival time, higher = longer survival
Method in brief: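 In tumour-bearing mice, survival after compound treatment is set against the vehicle group and given as a quotient.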

[1] = dose: 50.0 mg/kg/injection, schedule: Q01DX009 (ip), vehicle: saline
[2] = dose: 25.0 mg/kg/injection, schedule: Q01DX009 (ip), vehicle: saline with Tween-80
[3] = dose: 50.0 mg/kg/injection, schedule: Q01DX009 (ip), vehicle: saline with Tween-80
[4] = dose: 100.0 mg/kg/injection, schedule: Q01DX009 (ip), vehicle: saline with Tween-80

Measured: T/C

c1ccc(SC23CC4CC(CC(C4)C2)C3)nc1
inactive: dose: 100.0 mg/kg/injection, schedule: Q01DX001 (ip), vehicle: Klucel (hydroxypropylcellulose) (HPC) 100 % of control | dose: 200.0 mg/kg/injection, schedule: Q01DX001 (ip), vehicle: Klucel (hydroxypropylcellulose) (HPC) 90 % of control | dose: 400.0 mg/kg/injection, schedule: Q01DX001 (ip), vehicle: Klucel (hydroxypropylcellulose) (HPC) 100 % of control

NC(=O)CC[n+]1ccccc1
inactive: dose: 12.5 mg/kg/injection, schedule: Q01DX009 (ip), vehicle: saline 94 % of control | dose: 25.0 mg/kg/injection, schedule: Q01DX009 (ip), vehicle: saline 100 % of control | [1] 99 % of control

OCCN(CCO)c1cc(OCc2ccccc2)cc(OCc2ccccc2)c1
inactive: dose: 6.25 mg/kg/injection, schedule: Q01DX009 (ip), vehicle: water 103 % of control | dose: 12.5 mg/kg/injection, schedule: Q01DX009 (ip), vehicle: water 99 % of control | dose: 25.0 mg/kg/injection, schedule: Q01DX009 (ip), vehicle: water 91 % of control and 103 % of control | dose: 50.0 mg/kg/injection, schedule: Q01DX009 (ip), vehicle: water 100 % of control | dose: 50.0 mg/kg/injection, schedule: Q04DX003 (ip), vehicle: water 100 % of control | dose: 100.0 mg/kg/injection, schedule: Q04DX003 (ip), vehicle: water 100 % of control | dose: 200.0 mg/kg/injection, schedule: Q04DX003 (ip), vehicle: water 95 % of control | dose: 400.0 mg/kg/injection, schedule: Q04DX003 (ip), vehicle: water 100 % of control

COc1cc(-c2ccc(N=Nc3c(O)c(C(=O)Nc4ccccc4OC)cc4ccccc34)c(OC)c2)ccc1N=Nc1c(O)c(C(=O)Nc2ccccc2OC)cc2ccccc12
inactive: dose: 100.0 mg/kg/injection, schedule: Q01DX005 (ip), vehicle: saline with Tween-80 97 % of control | dose: 200.0 mg/kg/injection, schedule: Q01DX005 (ip), vehicle: saline with Tween-80 92 % of control

COc1c(OC)c(OC)c(C(=O)/C=C/c2ccccc2)c(OC)c1OC
inactive: [2] 104 % of control | [3] 104 % of control | [4] 99 % of control

O=C1C(C2CCCCC2)CCCC1C1CCCCC1 (centres undefined)
inactive: dose: 100.0 mg/kg/injection, schedule: Q01DX001 (ip), vehicle: saline with Tween-80 107 % of control | dose: 200.0 mg/kg/injection, schedule: Q01DX001 (ip), vehicle: saline with Tween-80 98 % of control

CCCCCCCCCCCCCCCC[N+]1(C)CCN(SN2CC[N+](C)(CCCCCCCCCCCCCCCC)CC2)CC1
inactive: [1] 100 % of control | dose: 100.0 mg/kg/injection, schedule: Q01DX009 (ip), vehicle: saline 103 % of control | dose: 100.0 mg/kg/injection, schedule: Q04DX003 (ip), vehicle: saline 104 % of control | dose: 200.0 mg/kg/injection, schedule: Q04DX003 (ip), vehicle: saline 104 % of control

CC1(C)O[C@]2(C)CC[C@@H]1[C@H]1O[C@@H]12
inactive: dose: 50.0 mg/kg/injection, schedule: Q01DX005 (ip), vehicle: saline 102 % of control | dose: 100.0 mg/kg/injection, schedule: Q01DX005 (ip), vehicle: saline 100 % of control | dose: 200.0 mg/kg/injection, schedule: Q01DX005 (ip), vehicle: saline 102 % of control

NC(=O)NN=C1CCCCC1
inactive: dose: 17.5 mg/kg/injection, schedule: Q01DX009 (ip), vehicle: Klucel (hydroxypropylcellulose) (HPC) 90 % of control | dose: 26.25 mg/kg/injection, schedule: Q04DX003 (ip), vehicle: Klucel (hydroxypropylcellulose) (HPC) 100 % of control | dose: 35.0 mg/kg/injection, schedule: Q01DX009 (ip), vehicle: Klucel (hydroxypropylcellulose) (HPC) 122 % of control | dose: 52.5 mg/kg/injection, schedule: Q04DX003 (ip), vehicle: Klucel (hydroxypropylcellulose) (HPC) 100 % of control

CCNC(C)(C)C(S)c1ccc(Cl)s1 (centres undefined)
inactive: dose: 12.5 mg/kg/injection, schedule: Q01DX009 (ip), vehicle: saline with Tween-80 93 % of control | [2] 93 % of control | dose: 25.0 mg/kg/injection, schedule: Q04DX003 (ip), vehicle: saline with Tween-80 101 % of control | [3] 91 % of control and 104 % of control | dose: 50.0 mg/kg/injection, schedule: Q04DX003 (ip), vehicle: saline with Tween-80 91 % of control | dose: 75.0 mg/kg/injection, schedule: Q04DX003 (ip), vehicle: saline with Tween-80 108 % of control | [4] 94 % of control and 109 % of control | dose: 100.0 mg/kg/injection, schedule: Q04DX003 (ip), vehicle: saline with Tween-80 114 % of control | dose: 200.0 mg/kg/injection, schedule: Q04DX003 (ip), vehicle: saline with Tween-80 116 % of control

O=C(c1ccccc1)C1CN(C2CCCC2)C1c1ccccc1 (centres undefined)
inactive: [3] 91 % of control | [4] 92 % of control | dose: 200.0 mg/kg/injection, schedule: Q01DX009 (ip), vehicle: saline with Tween-80 91 % of control
